Test results published in ChEMBL document CHEMBL2203015, “Synthesis and biological evaluation of 5-aryloxypyrazole derivatives bearing a rhodanine-3-aromatic acid as potential antimicrobial agents” (Bioorg Med Chem Lett, 2012).
Values after ≈ are worked out from the molar mass of the structure shown.

Tests used:
Format in all cases: functional
Escherichia coli = assay: Antibacterial activity against Escherichia coli 1356 incubated for 24 hrs serial dilution method; conditions: Escherichia coli, 1356, 24 h
Staphylococcus aureus [1] = assay: Antibacterial activity against multidrug-resistant Staphylococcus aureus CCARM 3506 incubated for 24 hrs serial dilution method; conditions: CCARM 3506, 24 h
Staphylococcus aureus [2] = assay: Antibacterial activity against quinolone-resistant Staphylococcus aureus CCARM 3505 incubated for 24 hrs serial dilution method; conditions: CCARM 3505, 24 h
Staphylococcus aureus [3] = assay: Antibacterial activity against quinolone-resistant Staphylococcus aureus CCARM 3519 incubated for 24 hrs serial dilution method; conditions: CCARM 3519, 24 h
Staphylococcus aureus [4] = assay: Antibacterial activity against multidrug-resistant Staphylococcus aureus CCARM 3167 incubated for 24 hrs serial dilution method; conditions: CCARM 3167, 24 h
Staphylococcus aureus [5] = assay: Antibacterial activity against Staphylococcus aureus KCTC 209 incubated for 24 hrs serial dilution method; conditions: KCTC 209, 24 h
Staphylococcus aureus [6] = assay: Potency index, ratio of MIC for norfloxacin to MIC for compound against quinolone-resistant Staphylococcus aureus CCARM 3505 incubated for 24 hrs serial dilution method
Staphylococcus aureus [7] = assay: Potency index, ratio of MIC for norfloxacin to MIC for compound against multidrug-resistant Staphylococcus aureus CCARM 3167 incubated for 24 hrs serial dilution method
Staphylococcus aureus [8] = assay: Potency index, ratio of MIC for norfloxacin to MIC for compound against multidrug-resistant Staphylococcus aureus CCARM 3506 incubated for 24 hrs serial dilution method
Staphylococcus aureus [9] = assay: Antibacterial activity against Staphylococcus aureus RN 4220 incubated for 24 hrs serial dilution method; conditions: RN 4220, 24 h
Staphylococcus aureus [10] = assay: Antibacterial activity against Staphylococcus aureus KCTC 503 incubated for 24 hrs serial dilution method; conditions: KCTC 503, 24 h
Staphylococcus aureus [11] = assay: Potency index, ratio of MIC for norfloxacin to MIC for compound against quinolone-resistant Staphylococcus aureus CCARM 3519 incubated for 24 hrs serial dilution method

| SMILES | MIC (Escherichia coli) [µg/mL] | MIC (Staphylococcus aureus [1]) [µg/mL] | MIC (Staphylococcus aureus [2]) [µg/mL] | MIC (Staphylococcus aureus [3]) [µg/mL] | MIC (Staphylococcus aureus [4]) [µg/mL] | MIC (Staphylococcus aureus [5]) [µg/mL] | Ratio (Staphylococcus aureus [6]) | Ratio (Staphylococcus aureus [7]) | Ratio (Staphylococcus aureus [8]) | MIC (Staphylococcus aureus [9]) [µg/mL] | MIC (Staphylococcus aureus [10]) [µg/mL] | Ratio (Staphylococcus aureus [11]) |
| --- | --- | --- | --- | --- | --- | --- | --- | --- | --- | --- | --- | --- |
| Cc1nn(-c2ccccc2)c(Oc2cccc(Cl)c2)c1/C=C1\SC(=S)N([C@@H](Cc2ccccc2)C(=O)O)C1=O | > 64 | 4 (≈ 6.94 µM) | 4 (≈ 6.94 µM) | 8 (≈ 13.9 µM) | 4 (≈ 6.94 µM) | > 64 | 4 | 2 | 2 | 4 (≈ 6.94 µM) | > 64 | 4 |
| Cc1ccc(Oc2c(/C=C3\SC(=S)N([C@@H](Cc4ccccc4)C(=O)O)C3=O)c(C)nn2-c2ccccc2)cc1 | > 64 | 8 (≈ 14.4 µM) | 4 (≈ 7.2 µM) | 4 (≈ 7.2 µM) | 4 (≈ 7.2 µM) | > 64 | 4 | 2 | 2 | 4 (≈ 7.2 µM) | > 64 | 4 |
| Cc1nn(-c2ccccc2)c(Oc2cccc(C(F)(F)F)c2)c1/C=C1\SC(=S)N([C@@H](Cc2ccccc2)C(=O)O)C1=O | > 64 | 4 (≈ 6.56 µM) | 4 (≈ 6.56 µM) | 8 (≈ 13.1 µM) | 4 (≈ 6.56 µM) | > 64 | 4 | 2 | 2 | 4 (≈ 6.56 µM) | > 64 | 4 |
| Cc1nn(-c2ccccc2)c(Oc2ccc3ccccc3c2)c1/C=C1\SC(=S)N([C@@H](Cc2ccccc2)C(=O)O)C1=O | > 64 | 2 (≈ 3.38 µM) | 2 (≈ 3.38 µM) | 2 (≈ 3.38 µM) | 2 (≈ 3.38 µM) | > 64 | 4 | 2 | 2 | 2 (≈ 3.38 µM) | > 64 | 4 |
| Cc1ccc(Oc2c(/C=C3\SC(=S)N([C@@H](Cc4ccccc4)C(=O)O)C3=O)c(C)nn2-c2ccccc2)c(C)c1 | > 64 | 2 (≈ 3.51 µM) | 2 (≈ 3.51 µM) | 2 (≈ 3.51 µM) | 2 (≈ 3.51 µM) | > 64 | 4 | 2 | 2 | 2 (≈ 3.51 µM) | > 64 | 4 |
| COc1ccccc1Oc1c(/C=C2\SC(=S)N([C@@H](Cc3ccccc3)C(=O)O)C2=O)c(C)nn1-c1ccccc1 | > 64 | 8 (≈ 14 µM) | 8 (≈ 14 µM) | 8 (≈ 14 µM) | 8 (≈ 14 µM) | > 64 | 4 | 2 | 2 | 16 (≈ 28 µM) | > 64 | 4 |
| Cc1nn(-c2ccccc2)c(Oc2ccc(Cl)cc2)c1/C=C1\SC(=S)N([C@@H](Cc2ccccc2)C(=O)O)C1=O | > 64 | 4 (≈ 6.94 µM) | 4 (≈ 6.94 µM) | 4 (≈ 6.94 µM) | 2 (≈ 3.47 µM) | > 64 | 4 | 2 | 2 | 4 (≈ 6.94 µM) | > 64 | 4 |
| Cc1nn(-c2ccccc2)c(Oc2ccccc2Cl)c1/C=C1\SC(=S)N([C@@H](Cc2ccccc2)C(=O)O)C1=O | > 64 | 8 (≈ 13.9 µM) | 8 (≈ 13.9 µM) | 8 (≈ 13.9 µM) | 8 (≈ 13.9 µM) | > 64 | 4 | 2 | 2 | 8 (≈ 13.9 µM) | > 64 | 4 |
| Cc1nn(-c2ccccc2)c(Oc2ccc(Br)cc2)c1/C=C1\SC(=S)N([C@@H](Cc2ccccc2)C(=O)O)C1=O | > 64 | 2 (≈ 3.22 µM) | 2 (≈ 3.22 µM) | 2 (≈ 3.22 µM) | 2 (≈ 3.22 µM) | > 64 | 4 | 2 | 2 | 2 (≈ 3.22 µM) | > 64 | 4 |
| Cc1nn(-c2ccccc2)c(Oc2ccc(Cl)cc2)c1/C=C1\SC(=S)N([C@@H](Cc2c[nH]c3ccccc23)C(=O)O)C1=O | > 64 | 2 (≈ 3.25 µM) | 2 (≈ 3.25 µM) | 2 (≈ 3.25 µM) | 2 (≈ 3.25 µM) | > 64 | – | – | – | 2 (≈ 3.25 µM) | > 64 | – |
| Cc1nn(-c2ccccc2)c(Oc2ccc3ccccc3c2)c1/C=C1\SC(=S)N([C@@H](Cc2ccc(O)cc2)C(=O)O)C1=O | > 64 | 8 (≈ 13.2 µM) | 8 (≈ 13.2 µM) | 8 (≈ 13.2 µM) | 8 (≈ 13.2 µM) | > 64 | – | – | – | 8 (≈ 13.2 µM) | > 64 | – |
| Cc1nn(-c2ccccc2)c(Oc2cccc(Cl)c2)c1/C=C1\SC(=S)N([C@@H](Cc2c[nH]c3ccccc23)C(=O)O)C1=O | > 64 | 4 (≈ 6.5 µM) | 4 (≈ 6.5 µM) | 4 (≈ 6.5 µM) | 2 (≈ 3.25 µM) | > 64 | – | – | – | 4 (≈ 6.5 µM) | > 64 | – |
| Cc1nn(-c2ccccc2)c(Oc2ccc(Cl)cc2Cl)c1/C=C1\SC(=S)N([C@@H](Cc2ccc(O)cc2)C(=O)O)C1=O | > 64 | 8 (≈ 12.8 µM) | 8 (≈ 12.8 µM) | 8 (≈ 12.8 µM) | 8 (≈ 12.8 µM) | > 64 | – | – | – | 8 (≈ 12.8 µM) | > 64 | – |
| Cc1cccc(Oc2c(/C=C3\SC(=S)N([C@@H](Cc4ccc(O)cc4)C(=O)O)C3=O)c(C)nn2-c2ccccc2)c1 | > 64 | 8 (≈ 14 µM) | 16 (≈ 28 µM) | 16 (≈ 28 µM) | 16 (≈ 28 µM) | > 64 | – | – | – | 16 (≈ 28 µM) | > 64 | – |
| Cc1ccc(Oc2c(/C=C3\SC(=S)N([C@@H](Cc4ccc(O)cc4)C(=O)O)C3=O)c(C)nn2-c2ccccc2)cc1 | > 64 | 8 (≈ 14 µM) | 16 (≈ 28 µM) | 16 (≈ 28 µM) | 8 (≈ 14 µM) | > 64 | – | – | – | 16 (≈ 28 µM) | > 64 | – |
| Cc1nn(-c2ccccc2)c(Oc2cccc(C(F)(F)F)c2)c1/C=C1\SC(=S)N([C@@H](Cc2c[nH]c3ccccc23)C(=O)O)C1=O | > 64 | 4 (≈ 6.17 µM) | 4 (≈ 6.17 µM) | 8 (≈ 12.3 µM) | 4 (≈ 6.17 µM) | > 64 | – | – | – | 4 (≈ 6.17 µM) | > 64 | – |
| Cc1nn(-c2ccccc2)c(Oc2cccc(Cl)c2)c1/C=C1\SC(=S)N([C@@H](Cc2ccc(O)cc2)C(=O)O)C1=O | > 64 | 16 (≈ 27 µM) | 32 (≈ 54 µM) | 16 (≈ 27 µM) | 8 (≈ 13.5 µM) | > 64 | – | – | – | 16 (≈ 27 µM) | > 64 | – |
| Cc1nn(-c2ccccc2)c(Oc2ccc(F)cc2)c1/C=C1\SC(=S)N([C@@H](Cc2c[nH]c3ccccc23)C(=O)O)C1=O | > 64 | 4 (≈ 6.68 µM) | 8 (≈ 13.4 µM) | 8 (≈ 13.4 µM) | 4 (≈ 6.68 µM) | > 64 | – | – | – | 8 (≈ 13.4 µM) | > 64 | – |
| Cc1ccccc1Oc1c(/C=C2\SC(=S)N([C@@H](Cc3ccc(O)cc3)C(=O)O)C2=O)c(C)nn1-c1ccccc1 | > 64 | 16 (≈ 28 µM) | 32 (≈ 56 µM) | 32 (≈ 56 µM) | 16 (≈ 28 µM) | > 64 | – | – | – | 16 (≈ 28 µM) | > 64 | – |
| Cc1ccc(Oc2c(/C=C3\SC(=S)N([C@@H](Cc4ccc(O)cc4)C(=O)O)C3=O)c(C)nn2-c2ccccc2)c(C)c1 | > 64 | 8 (≈ 13.7 µM) | 8 (≈ 13.7 µM) | 8 (≈ 13.7 µM) | 8 (≈ 13.7 µM) | > 64 | – | – | – | 8 (≈ 13.7 µM) | > 64 | – |
| Cc1onc(-c2ccccc2)c1C(=O)N[C@@H]1C(=O)N2[C@@H]1SC(C)(C)[C@@H]2C(=O)O [OXACILLIN] | > 64 | > 64 | 1 (≈ 2.49 µM) | 1 (≈ 2.49 µM) | > 64 | 1 (≈ 2.49 µM) | – | – | – | 1 (≈ 2.49 µM) | 1 (≈ 2.49 µM) | – |
| Cc1nn(-c2ccccc2)c(Oc2ccccc2Cl)c1/C=C1\SC(=S)N([C@@H](Cc2c[nH]c3ccccc23)C(=O)O)C1=O | > 64 | 4 (≈ 6.5 µM) | 4 (≈ 6.5 µM) | 4 (≈ 6.5 µM) | 2 (≈ 3.25 µM) | > 64 | – | – | – | 4 (≈ 6.5 µM) | > 64 | – |
| Cc1ccc(Oc2c(/C=C3\SC(=S)N([C@@H](Cc4c[nH]c5ccccc45)C(=O)O)C3=O)c(C)nn2-c2ccccc2)cc1 | > 64 | 2 (≈ 3.36 µM) | 4 (≈ 6.73 µM) | 4 (≈ 6.73 µM) | 2 (≈ 3.36 µM) | > 64 | – | – | – | 4 (≈ 6.73 µM) | > 64 | – |
| Cc1nn(-c2ccccc2)c(Oc2ccc3ccccc3c2)c1/C=C1\SC(=S)N([C@@H](Cc2c[nH]c3ccccc23)C(=O)O)C1=O | > 64 | 2 (≈ 3.17 µM) | 2 (≈ 3.17 µM) | 2 (≈ 3.17 µM) | 2 (≈ 3.17 µM) | > 64 | – | – | – | 2 (≈ 3.17 µM) | > 64 | – |
| Cc1ccccc1Oc1c(/C=C2\SC(=S)N([C@@H](Cc3c[nH]c4ccccc34)C(=O)O)C2=O)c(C)nn1-c1ccccc1 | > 64 | 4 (≈ 6.73 µM) | 8 (≈ 13.5 µM) | 8 (≈ 13.5 µM) | 2 (≈ 3.36 µM) | > 64 | – | – | – | 8 (≈ 13.5 µM) | > 64 | – |
| Cc1nn(-c2ccccc2)c(Oc2ccc(Cl)cc2)c1/C=C1\SC(=S)N([C@@H](Cc2ccc(O)cc2)C(=O)O)C1=O | > 64 | 8 (≈ 13.5 µM) | 16 (≈ 27 µM) | 8 (≈ 13.5 µM) | 16 (≈ 27 µM) | > 64 | – | – | – | 16 (≈ 27 µM) | > 64 | – |
